Columns and labels:
Test in all cases: Kinase inhibitor library screening, PrestoBlue cell viability, 1 or 10 μM, 72 h
[1] = system: 501Mel-GP cells (Dabrafenib-resistant)
[2] = system: IGR37-XP cells (Vemurafenib-resistant)
[3] = system: A375-GP cells (Dabrafenib-resistant); conditions: for cell viability (kinase inhibitor library screening): in %
A375 cells (parental) = conditions: for cell viability (kinase inhibitor library screening): in %
[4] = system: A375-XP cells (Vemurafenib-resistant); conditions: for cell viability (kinase inhibitor library screening): in %
[5] = system: IGR37-GP cells (Dabrafenib-resistant)
IGR37 cells (parental) = system: IGR37 cells (parental)
[6] = system: 501Mel-XP cells (Vemurafenib-resistant)
501Mel cells (parental) = system: 501Mel cells (parental)
Summary of the method: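 PrestoBlue viability readout after 72 h exposure to each inhibitor at 1 or 10 μM, reported relative to untreated cells as % viability. Lines tested: sensitive parental plus derivatives resistant to Vemurafenib (XP) or Dabrafenib (GP), each run at least in duplicate.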

For `O=C(NCc1ccccc1)c1csc(Nc2ccncn2)n1` [Thiazovivin], which “cell viability (kinase inhibitor library screening)” value ([1]; 501Mel GP, 1μΜ, in %) is on record?
Its value is 104.3.

And the “cell viability (kinase inhibitor library screening)” value ([1]; 501Mel GP, 10μΜ, in %)?
The value was 43.8.

And the “cell viability (kinase inhibitor library screening)” value ([2]; IGR37 XP, 1μΜ, in %)?
The value was 98.5.

And the “cell viability (kinase inhibitor library screening)” value ([2]; IGR37 XP, 10μΜ, in %)?
Its value is 87.0.

What about the “cell viability (kinase inhibitor library screening)” value ([3]; A375 GP, 1μΜ) of the same compound?
The value was 96.7.

What about the “cell viability (kinase inhibitor library screening)” value ([3]; A375 GP, 10μΜ) of the same compound?
The value was 87.9.

What about the “cell viability (kinase inhibitor library screening)” value (A375 cells (parental); A375 Parental, 1μΜ) of the same compound?
Its value is 103.7.

What about the “cell viability (kinase inhibitor library screening)” value (A375 cells (parental); A375 Parental, 10μΜ) of the same compound?
Its value is 81.8.

What about the “cell viability (kinase inhibitor library screening)” value ([4]; A375 XP, 10μΜ) of the same compound?
Its value is 107.7.

What about the “cell viability (kinase inhibitor library screening)” value ([5]; IGR37 GP, 1μΜ, in %) of the same compound?
The value was 92.4.

What about the “cell viability (kinase inhibitor library screening)” value ([5]; IGR37 GP, 10μΜ, in %) of the same compound?
The value was 93.5.

What about the “cell viability (kinase inhibitor library screening)” value (IGR37 cells (parental); IGR37 Parental, 1μΜ, in %) of the same compound?
The value was 97.5.

And the “cell viability (kinase inhibitor library screening)” value (IGR37 cells (parental); IGR37 Parental, 10μΜ, in %)?
Its value is 89.5.

What about the “cell viability (kinase inhibitor library screening)” value ([6]; 501Mel XP, 10μΜ, in %) of the same compound?
The value was 28.9.

What about the “cell viability (kinase inhibitor library screening)” value (501Mel cells (parental); 501Mel Parental, 1μΜ, in %) of the same compound?
The value was 107.2.

And the “cell viability (kinase inhibitor library screening)” value (501Mel cells (parental); 501Mel Parental, 10μΜ, in %)?
The value was 76.8.

What does the source list for `O=c1sn(-c2cccc3ccccc23)c(=O)n1Cc1ccccc1` [Tideglusib]?
viability at 1 µM ([1]; Homo sapiens, 72 h, read-out: cell viability, 501Mel GP, 1μΜ): 102%; viability at 10 µM ([1]; Homo sapiens, 72 h, read-out: cell viability, 501Mel GP, 10μΜ): 91.6%; viability at 1 µM ([2]; Homo sapiens, IGR-37, 72 h, read-out: cell viability, IGR37 XP, 1μΜ): 96.4%; viability at 10 µM ([2]; Homo sapiens, IGR-37, 72 h, read-out: cell viability, IGR37 XP, 10μΜ): 74.1%; viability at 1 µM ([3]; Homo sapiens, A-375, 72 h, read-out: cell viability, A375 GP, 1μΜ): 98.4%; viability at 10 µM ([3]; Homo sapiens, A-375, 72 h, read-out: cell viability, A375 GP, 10μΜ): 97.5%; viability at 1 µM (A375 cells (parental); Homo sapiens, A-375, 72 h, read-out: cell viability, A375 Parental, 1μΜ): 95.4%; viability at 10 µM (A375 cells (parental); Homo sapiens, A-375, 72 h, read-out: cell viability, A375 Parental, 10μΜ): 97.4%; viability at 1 µM ([4]; Homo sapiens, A-375, 72 h, read-out: cell viability, A375 XP, 1μΜ): 105%; viability at 10 µM ([4]; Homo sapiens, A-375, 72 h, read-out: cell viability, A375 XP, 10μΜ): 108%; viability at 1 µM ([5]; Homo sapiens, IGR-37, 72 h, read-out: cell viability, IGR37 GP, 1μΜ): 94.6%; viability at 10 µM ([5]; Homo sapiens, IGR-37, 72 h, read-out: cell viability, IGR37 GP, 10μΜ): 95.9%; viability at 1 µM (IGR37 cells (parental); Homo sapiens, IGR-37, 72 h, read-out: cell viability, IGR37 Parental, 1μΜ): 103%; viability at 10 µM (IGR37 cells (parental); Homo sapiens, IGR-37, 72 h, read-out: cell viability, IGR37 Parental, 10μΜ): 99.7%; viability at 1 µM ([6]; Homo sapiens, 72 h, read-out: cell viability, 501Mel XP, 1μΜ): 98.8%; viability at 10 µM ([6]; Homo sapiens, 72 h, read-out: cell viability, 501Mel XP, 10μΜ): 90.4%; viability at 1 µM (501Mel cells (parental); Homo sapiens, 72 h, read-out: cell viability, 501Mel Parental, 1μΜ): 110%; viability at 10 µM (501Mel cells (parental); Homo sapiens, 72 h, read-out: cell viability, 501Mel Parental, 10μΜ): 105%

Which “cell viability (kinase inhibitor library screening)” value ([1]; 501Mel GP, 1μΜ, in %) does the source give for `COc1ccc2cc(-c3nc(-c4ccc([S+](C)[O-])cc4)[nH]c3-c3ccncc3)ccc2c1` (centres unmarked) [Tie2 kinase inhibitor] here?
Its value is 107.0.

And the “cell viability (kinase inhibitor library screening)” value ([1]; 501Mel GP, 10μΜ, in %)?
Its value is 87.5.

And the “cell viability (kinase inhibitor library screening)” value ([2]; IGR37 XP, 10μΜ, in %)?
The value was 62.0.

And the “cell viability (kinase inhibitor library screening)” value ([3]; A375 GP, 1μΜ)?
Its value is 96.7.

And the “cell viability (kinase inhibitor library screening)” value ([3]; A375 GP, 10μΜ)?
The value was 82.6.

What about the “cell viability (kinase inhibitor library screening)” value (A375 cells (parental); A375 Parental, 10μΜ) of the same compound?
The value was 96.4.

What about the “cell viability (kinase inhibitor library screening)” value ([4]; A375 XP, 10μΜ) of the same compound?
The value was 97.1.

And the “cell viability (kinase inhibitor library screening)” value ([5]; IGR37 GP, 1μΜ, in %)?
Its value is 94.1.

And the “cell viability (kinase inhibitor library screening)” value (IGR37 cells (parental); IGR37 Parental, 10μΜ, in %)?
Its value is 103.5.

And the “cell viability (kinase inhibitor library screening)” value ([6]; 501Mel XP, 1μΜ, in %)?
Its value is 96.5.

And the “cell viability (kinase inhibitor library screening)” value ([6]; 501Mel XP, 10μΜ, in %)?
The value was 64.5.

And the “cell viability (kinase inhibitor library screening)” value (501Mel cells (parental); 501Mel Parental, 1μΜ, in %)?
Its value is 96.1.

And the “cell viability (kinase inhibitor library screening)” value (501Mel cells (parental); 501Mel Parental, 10μΜ, in %)?
Its value is 90.5.

For `CCC(=O)N1CCN(c2ccc(-n3c(=O)ccc4cnc5ccc(-c6cnc7ccccc7c6)cc5c43)cc2C(F)(F)F)CC1` [Torin 1], which “Cell viability in kinase inhibitor library screening, 501Mel GP, 1μΜ” value ([1]; 501Mel GP, 1μΜ, 72 h, in %) is on record?
Its value is 20.9.

What about the “Cell viability in kinase inhibitor library screening, 501Mel GP, 10μΜ” value ([1]; 501Mel GP, 10μΜ, 72 h, in %) of the same compound?
The value was 10.6.

What about the Cell viability in kinase inhibitor library screening, IGR37 XP, 10μΜ ([2]; IGR37 XP, 10μΜ, 72 h) of the same compound?
The Cell viability in kinase inhibitor library screening, IGR37 XP, 10μΜ was 5.2%.

What about the “Cell viability in kinase inhibitor library screening, IGR37 XP, 1μΜ” value ([2]; IGR37 XP, 1μΜ, 72 h, in %) of the same compound?
The value was 30.3.

And the “Cell viability in kinase inhibitor library screening, A375 GP, 1μΜ” value ([3]; A375 GP, 1μΜ, 72 h)?
The value was 22.1.

And the “Cell viability in kinase inhibitor library screening, A375 GP, 10μΜ” value ([3]; A375 GP, 10μΜ, 72 h)?
Its value is 6.9.

What about the “Cell viability in kinase inhibitor library screening, A375 Parental, 10μΜ” value (A375 cells (parental); A375 Parental, 10μΜ, 72 h) of the same compound?
The value was 7.2.

And the “Cell viability in kinase inhibitor library screening, A375 Parental, 1μΜ” value (A375 cells (parental); A375 Parental, 1μΜ, 72 h)?
The value was 20.5.

And the “Cell viability in kinase inhibitor library screening, A375 XP, 1μΜ” value ([4]; A375 XP, 1μΜ, 72 h)?
Its value is 20.4.

And the “Cell viability in kinase inhibitor library screening, A375 XP, 10μΜ” value ([4]; A375 XP, 10μΜ, 72 h)?
Its value is 13.4.

And the Cell viability in kinase inhibitor library screening, IGR37 GP, 10μΜ ([5]; IGR37 GP, 10μΜ, 72 h)?
The Cell viability in kinase inhibitor library screening, IGR37 GP, 10μΜ was 12.5%.

And the “Cell viability in kinase inhibitor library screening, IGR37 GP, 1μΜ” value ([5]; IGR37 GP, 1μΜ, 72 h, in %)?
Its value is 40.0.

And the “Cell viability in kinase inhibitor library screening, IGR37 Parental, 1μΜ” value (IGR37 cells (parental); IGR37 Parental, 1μΜ, 72 h, in %)?
The value was 23.8.

And the “Cell viability in kinase inhibitor library screening, IGR37 Parental, 10μΜ” value (IGR37 cells (parental); IGR37 Parental, 10μΜ, 72 h, in %)?
The value was 10.7.

And the “Cell viability in kinase inhibitor library screening, 501Mel XP, 1μΜ” value ([6]; 501Mel XP, 1μΜ, 72 h, in %)?
Its value is 14.1.

What about the “Cell viability in kinase inhibitor library screening, 501Mel XP, 10μΜ” value ([6]; 501Mel XP, 10μΜ, 72 h, in %) of the same compound?
The value was 2.6.

And the “Cell viability in kinase inhibitor library screening, 501Mel Parental, 1μΜ” value (501Mel cells (parental); 501Mel Parental, 1μΜ, 72 h, in %)?
The value was 15.1.

What about the “Cell viability in kinase inhibitor library screening, 501Mel Parental, 10μΜ” value (501Mel cells (parental); 501Mel Parental, 10μΜ, 72 h, in %) of the same compound?
Its value is 3.3.

Reference: PMC6364417, “Kinase inhibitor library screening identifies synergistic drug combinations effective in sensitive and resistant melanoma cells” (Journal of Experimental & Clinical Cancer Research : CR, 2019)
